These results are taken from US20250185948A1, “WEARABLE APTAMER MICRONEEDLE PATCH FOR CONTINUOUS MINIMALLY-INVASIVE BIOMONITORING” (THE REGENTS OF THE UNIVERSITY OF CALIFORNIA, priority 2022, published 2025).

Data set [1] in a line: AMPatch in-vivo tobramycin PK monitoring in a rat model (ISF sensor readout and blood LC-MS/MS). Further details: species or system Sprague-Dawley rats. Particulars: intravenous tobramycin 20 mg/kg, different animals. The text has this: More particularly, the developed AMPatch was applied to monitor the PK profile of tobramycin in dermal ISF using a rat model and investigate the drug's ISF-blood correlation. Accordingly, used were three healthy adult Sprague-Dawley rats and the animals were anesthetized during the test (FIG. 4A). An AMPatch was placed at the back of the animal to render continuous ISF monitoring upon intravenous tobramycin injection. […] To investigate the drug's ISF-blood correlation, blood samples were simultaneously collected before and at intermittent time points after drug injection, followed by standard lab analysis (liquid chromatography with tandem mass spectrometry, LC-MS/MS). The acquired PK readouts were interpreted using a two compartment-based pharmacokinetic model, which captures the drug's distribution (e.g., from blood to ISF) and elimination processes (FIG. 4B). The blood-ISF correlation was evaluated by comparing the drug's circulating AUC (AUC_blood) versus the AUC and the maximum concentrations of ISF drug, where the ISF concentrations can be equivalently presented by the measured sensor response (denoting AUC_ISF and R_max, respectively).
An AMPatch according to embodiments was first deployed in a manner to assess its capability of tracking the ISF PK profile in-vivo. […]

The conditions of data set [2]: tobramycin treatments; cited from earlier work.

SMILES strings stand for the structures.

For `NC[C@H]1O[C@H](O[C@H]2[C@H](O)[C@@H](O[C@H]3O[C@H](CO)[C@@H](O)[C@H](N)[C@H]3O)[C@H](N)C[C@@H]2N)[C@H](N)C[C@@H]1O` [tobramycin], the AUC in data set [1] (Sprague-Dawley, blood LC-MS/MS, read-out: AUC_blood) was 176 µM·h. Moreover, in data set [1] (dermal ISF, AMPatch sensor response), the AUC_ISF came to 7.7±5.2 %·h. The “rate of nephrotoxicity incidence” value in data set [2] was 12%.
